Results taken from BindingDB's records for doi:10.1016/j.ejmech.2018.08.031 (Wenzhou Medical University, 2018).

test: Inhibition of recombinant human GST-tagged EGFR L858R mutant cytoplasmic domain expressed in baculovirus expression system using FAM-labeled peptide as substrate after 10 mins by mobility shift assay

With `COc1cc(Nc2cc(Nc3ccc(Cl)cc3)ncn2)cc(OC)c1OC` as the compound, how does the IC50 read?
Its IC50 is greater than 10000 nM.

With `CCOc1ccc(Nc2cc(NC(=O)c3ccccc3)ncn2)cc1` as the compound, how does the IC50 read?
The IC50 was 1210 nM.

With `O=C(O)CCCC(=O)Nc1cc(N2CCOCC2)ncn1` as the compound, how does the IC50 read?
Its IC50 is 27 nM.

With `COc1ccc(OC)c(Nc2cc(NC(=O)CCCC(=O)O)ncn2)c1` as the compound, how does the IC50 read?
The IC50 was greater than 10000 nM.

Which IC50 does the source give for `COc1ccc(OC)c(Nc2cc(NCCc3cccs3)ncn2)c1` here?
Its IC50 is 167 nM.

For `COc1cccc(Nc2cc(NC(=O)CCCC(=O)O)ncn2)c1`, which IC50 is on record?
The IC50 was 31 nM.

Which IC50 does the source give for `COc1cccc(Nc2cc(Nc3ccc(S(N)(=O)=O)cc3)ncn2)c1` here?
Its IC50 is 1850 nM.

With `COc1ccc(OC)c(Nc2cc(Nc3ccc(N4CCN(C)CC4)cc3)ncn2)c1` as the compound, how does the IC50 read?
The IC50 was 167 nM.

For `COc1ccc(Nc2cc(NC(=O)c3ccccc3)ncn2)cc1`, which IC50 is on record?
Its IC50 is 60 nM.

For `O=C(O)CCCC(=O)Nc1cc(Nc2ccc(Cl)cc2)ncn1`, which IC50 is on record?
Its IC50 is 1320 nM.

With `O=C(O)CCCC(=O)Nc1cc(Nc2cccc(Br)c2)ncn1` as the compound, how does the IC50 read?
Its IC50 is greater than 10000 nM.

Which IC50 does the source give for `COc1ccc(OC)c(Nc2cc(Nc3ccc(S(N)(=O)=O)cc3)ncn2)c1` here?
Its IC50 is 619 nM.

Which IC50 does the source give for `CCNc1cc(Nc2cccc(Cl)c2)ncn1` here?
Its IC50 is greater than 10000 nM.

For `CCOC(=O)c1ccc(Nc2cc(Nc3cccc(OC)c3)ncn2)cc1`, which IC50 is on record?
The IC50 was 1740 nM.

For `COc1ccc(OC)c(Nc2cc(Nc3ccc(F)cc3)ncn2)c1`, which IC50 is on record?
The IC50 was 230 nM.

For `O=C(Nc1cc(Nc2ccc(Cl)cc2)ncn1)c1ccc(F)cc1`, which IC50 is on record?
The IC50 was 1610 nM.

With `O=C(O)CCCC(=O)Nc1cc(Nc2ccccc2)ncn1` as the compound, how does the IC50 read?
Its IC50 is 183 nM.

Which IC50 does the source give for `CCOC(=O)c1ccc(Nc2cc(NC(=O)CCCC(=O)O)ncn2)cc1` here?
The IC50 was 69 nM.

With `CCOC(=O)CCC(=O)Nc1cc(Nc2cccc(Br)c2)ncn1` as the compound, how does the IC50 read?
Its IC50 is 1340 nM.

For `CCOC(=O)CCCC(=O)Nc1cc(Nc2cccc(Cl)c2)ncn1`, which IC50 is on record?
The IC50 was greater than 10000 nM.

For `COc1cccc(Nc2cc(Nc3cccc(Cl)c3)ncn2)c1`, which IC50 is on record?
The IC50 was 1570 nM.
